Consider three compounds from US4582794A, “Method of determining polyamine content of biological fluids” (The University of Arizona Foundation, priority 1982, dated 1986).

The target in this assay is T1, guinea pig liver transglutaminase (UniProt P08587).
T1 construct: guinea pig liver transglutaminase; from tissue; host or cells: guinea pig liver
T1 sequence (P08587 2-690 limits assumed): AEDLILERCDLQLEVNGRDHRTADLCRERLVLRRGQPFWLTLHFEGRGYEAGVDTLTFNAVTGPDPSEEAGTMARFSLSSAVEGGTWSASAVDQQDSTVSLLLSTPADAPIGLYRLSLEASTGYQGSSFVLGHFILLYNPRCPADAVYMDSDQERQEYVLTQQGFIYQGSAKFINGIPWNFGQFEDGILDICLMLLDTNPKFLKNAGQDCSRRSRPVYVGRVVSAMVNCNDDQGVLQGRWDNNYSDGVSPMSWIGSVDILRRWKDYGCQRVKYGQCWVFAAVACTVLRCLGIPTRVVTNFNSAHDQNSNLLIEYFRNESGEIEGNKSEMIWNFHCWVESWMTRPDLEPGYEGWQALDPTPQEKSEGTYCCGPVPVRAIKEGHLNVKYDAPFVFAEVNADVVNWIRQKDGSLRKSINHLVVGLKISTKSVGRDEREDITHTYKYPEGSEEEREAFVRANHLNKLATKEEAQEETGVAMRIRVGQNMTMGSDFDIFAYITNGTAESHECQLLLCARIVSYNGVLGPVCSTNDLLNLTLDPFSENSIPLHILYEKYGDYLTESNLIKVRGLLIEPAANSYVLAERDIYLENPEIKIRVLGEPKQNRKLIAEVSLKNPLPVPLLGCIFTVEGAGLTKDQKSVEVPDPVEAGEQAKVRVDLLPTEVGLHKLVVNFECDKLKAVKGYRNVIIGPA
In words: transglutaminase-competition assay (incorporation of [3H]putrescine into dimethylated casein). Format: biochemical. The following applies: 0.1 μM [3H]putrescine; 30 mM tris(hydroxymethyl)aminomethane HCl pH 8.0; FIG. 2.

Each structure is given as a SMILES string.

Experimental: The transglutaminase competition assay was conducted in the presence of 30 mM tris(hydroxymethyl)aminomethane HCl, pH 8.3 (closed circles); 30 mM glycine, pH 9.25, (open circles); 30 mM glycine, pH 9.75 (open triangles); or 30 mM glycine, pH 10.0 (open squares). The data were obtained in the presence of increasing amounts of unlabeled putrescine.
The ability of transglutaminase to incorporate polyamines into a covalent conjugate with protein is the basis for an assay procedure based on competition between radiolabeled polyamine and unlabeled polyamine-containing standards or samples as the enzyme's substrates. However, because the affinity of transglutaminase for amine-containing substrates is relatively low the assay reaction could not be conducted under saturating substrate conditions and yield the level of sensitivity required to measure the polyamine content of biological samples. Therefore, assay conditions were developed which would make the protein acceptor substrate ratelimiting and allow the reaction to be run to completion, the radioactive and unlabeled polyamine competing for the completion, the radioactive and unlabeled polyamine competing for the limited number of conjugation sites. […] In all cases, the maximum incorporation was achieved by 30-60 minutes and was stable to another hour.
The reaction was initiated by the addition of transglutaminase solution (10 μl), incubated 60 minutes at 37° C. […] Triplicate aliquots (35 μl) of the solution were spotted on 1.5×8 cm instant thin-layer chromatography strips at a site 1.5 cm above the bottom edge which had previously received 60 μl of 20% trichloroacetic acid. Ascending chromatography was immediately carried out in 5% trichloroacetic acid containing 0.2 M KCl. After the solvent front had reached the top of the strip (ca. 10 minutes), a 2.5-cm segment from 1.5 cm above the 1 cm below the origin was cut out, dried, and the segment counted in 6 ml of scintillation liquid (toluene/Omnifluor, New England Nuclear, Boston).

In the case of `NCCCCNCCCN` [spermidine, Spermidine], the “50% displacement of [3H]putrescine incorporation” value (“50% displacement” below) worked out at 800 pmol.

As to `NCCCNCCCCNCCCN` [spermine], the “50% displacement” value turned out to be 800 pmol.

As for `NCCCCN` [putrescine, Putrescine], the “50% displacement” value was 800 pmol.
